{"source": "patent US20090325917A1", "about": "“Pharmaceutical Compositions and Nasal Spray Incorporating Anhydrous Mometasone Furoate” (CIPLA LIMITED, priority 2006, published 2009)", "key": {"[1]": {"conditions": "aqueous solution; converted to a different crystalline form after storage at 35° C.; cited from earlier work"}, "[2]": {"assay": "Storage stability of the composition, crystalline form assessed by X-ray diffraction", "type": "physicochemical", "conditions": "in the aqueous composition", "from_the_text": "The stability of the compositions in accordance with the present invention may be defined by standard methods. The anhydrous crystalline form is stable at room temperature. […] The crystalline form may be assessed using X-ray diffraction methods."}, "[3]": {"assay": "Stability of the API on boiling/stirring in water, tested by X-ray diffraction", "type": "physicochemical", "conditions": "boiling in water (with and without Tween 80), two hours stirring at 70 deg in a water bath, then 2 hours at 70 deg on a magnetic stirrer; residue dried at 25° C. under vacuum", "protocol": "The monohydrate peak is clearly visible in the BX 2029 trace, and is absent in the remaining pattern, indicating the presence of anhydrous form in the formulation. Stability of the mometasone furoate anhydrous API was confirmed by boiling in water (with and without the surfactant Tween 80) for two hours whilst stirring at 70 deg in a water bath, followed by 2 hours at 70 deg on a magnetic stirrer. The solution was cooled to room temperature, filtered and the residue containing the API was dried at 25° C. under vacuum. […]"}, "[4]": {"assay": "Rotation stability of the composition, crystalline form assessed by X-ray diffraction", "type": "physicochemical", "conditions": "in the aqueous composition; rotated for five days at 35° C. and an additional four weeks at room temperature", "from_the_text": "The crystalline form may be assessed using X-ray diffraction methods."}}, "data": [{"molecule": "C[C@@H]1C[C@H]2[C@@H]3CCC4=CC(=O)C=C[C@]4(C)[C@@]3(Cl)[C@@H](O)C[C@]2(C)[C@@]1(OC(=O)c1ccco1)C(=O)CCl", "note": "[anhydrous mometasone furoate]", "values": [{"measurement": "stability of the crystalline form in aqueous composition", "setting": "[1]", "result": "unstable"}, {"measurement": "crystalline form of the anhydrous mometasone furoate in the composition", "setting": "[2]; 25° for a period of three months", "result": "does not change"}, {"measurement": "crystalline form of the anhydrous mometasone furoate in the composition", "setting": "[2]; 40° C. for a period of three months", "result": "does not change"}, {"measurement": "XRD pattern of the dried sample after treatment in water", "setting": "[3]", "result": "concordant with that of mometasone furoate anhydrous"}, {"measurement": "crystalline form of the anhydrous mometasone furoate in the composition", "setting": "[4]", "result": "does not change"}]}]}
